Measurements from ChEMBL document CHEMBL1132139, “2-Naphthylcarbapenems: broad spectrum antibiotics with enhanced potency against MRSA” (1999).
Values after ≈ are worked out from the molar mass of the structure shown.

How the values were obtained:
[1] = system: Staphylococcus aureus; experiment: Compound was evaluated for the antibacterial activity against methicillin-resistant Staphylococcus aureus (MRSA)as fold improvement in activity with respect to imipenem.; type: functional
[2] = system: Serratia; experiment: Compound was evaluated for the antibacterial activity against Serratia as fold improvement in activity with respect to imipenem.; type: functional
[3] = system: Enterobacter; experiment: Compound was evaluated for the antibacterial activity against Enterobacter as fold improvement in activity with respect to imipenem.; type: functional
[4] = system: Staphylococcus aureus; experiment: Compound was evaluated for the antibacterial activity against methicillin-sensitive Staphylococcus aureus (MSSA)as fold improvement in activity with respect to imipenem.; type: functional
[5] = molecular target: T1, Dipeptidase 1 (Sus scrofa) (UniProt P22412); experiment: Dehydropeptidase-1 susceptibility.
T1 sequence (whole entry): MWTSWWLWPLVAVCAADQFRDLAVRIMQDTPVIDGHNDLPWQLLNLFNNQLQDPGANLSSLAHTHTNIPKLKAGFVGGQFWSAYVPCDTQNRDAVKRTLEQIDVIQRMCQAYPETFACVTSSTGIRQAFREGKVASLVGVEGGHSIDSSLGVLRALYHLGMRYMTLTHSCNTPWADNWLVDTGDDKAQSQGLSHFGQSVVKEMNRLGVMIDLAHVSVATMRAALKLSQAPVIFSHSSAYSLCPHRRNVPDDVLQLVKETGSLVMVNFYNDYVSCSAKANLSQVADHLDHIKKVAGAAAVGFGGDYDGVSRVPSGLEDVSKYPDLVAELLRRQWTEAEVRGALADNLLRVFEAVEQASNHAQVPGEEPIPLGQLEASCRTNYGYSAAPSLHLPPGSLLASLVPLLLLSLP

[6] = system: Proteus; experiment: Compound was evaluated for the antibacterial activity against Proteus as fold improvement in activity with respect to imipenem.; type: functional, Proteus sp.
[7] = system: Klebsiella; experiment: Compound was evaluated for the antibacterial activity against Klebsiella.8 as fold improvement in activity with respect to imipenem.; type: functional
[8] = system: Escherichia coli; experiment: Compound was evaluated for the antibacterial activity against Escherichia coli as fold improvement in activity with respect to imipenem.; type: functional
[9] = system: Enterococcus; experiment: Compound was evaluated for the antibacterial activity against Enterococcus as fold improvement in activity with respect to imipenem.; type: functional
[10] = Compound was evaluated for the antibacterial activity against methicillin-resistant coagulase-negative staphylococci (MRCNS)as fold improvement in activity with respect to imipenem.; type: functional, Staphylococcus […]
[11] = system: Pseudomonas aeruginosa; experiment: Compound was evaluated for the antibacterial activity against Pseudomonas aeruginosa as fold improvement in activity with respect to imipenem.; type: functional
[12] = system: Serratia; experiment: Compound was evaluated for the antibacterial activity against Serratia.; type: functional
[13] = system: Enterococcus; experiment: Compound was evaluated for the antibacterial activity against Enterococcus.; type: functional
[14] = system: coagulase-negative Staphylococcus; experiment: Compound was evaluated for the anti-MRCNS activity as MIC50.
[15] = system: Escherichia coli; experiment: Compound was evaluated for the antibacterial activity against Escherichia coli.; type: functional
[16] = system: Staphylococcus aureus; experiment: Compound was evaluated for the anti-MRSA activity as MIC90.; type: functional
[17] = system: Enterobacter; experiment: Compound was evaluated for the antibacterial activity against Enterobacter.; type: functional
[18] = system: Staphylococcus aureus; experiment: Compound was evaluated for the antibacterial activity against methicillin-sensitive Staphylococcus aureus (MSSA).; type: functional
[19] = system: Klebsiella; experiment: Compound was evaluated for the antibacterial activity against Klebsiella.8.; type: functional
[20] = system: Pseudomonas aeruginosa; experiment: Compound was evaluated for the antibacterial activity against Pseudomonas aeruginosa.; type: functional
[21] = system: Proteus; experiment: Compound was evaluated for the antibacterial activity against Proteus; type: functional, Proteus sp.
[22] = system: Staphylococcus aureus; experiment: Compound was evaluated for the anti-MRSA activity as MIC50; type: functional
[23] = system: Staphylococcus aureus; experiment: Compound was evaluated for the antibacterial activity against methicillin-resistant coagulase-negative staphylococci (MRCNS).; type: functional
[24] = system: Staphylococcus aureus; experiment: Compound was evaluated for the antibacterial activity against methicillin-resistant Staphylococcus aureus (MRSA).; type: functional
[25] = system: Klebsiella; experiment: Compound was evaluated for the antibacterial activity against Klebsiella as fold improvement in activity with respect to imipenem.; type: functional

SMILES | Activity [1] | Activity [2] | Activity [3] | Activity [4] | Activity [5] | Activity [6] | Activity [7] | Activity [8] | Activity [9] | Activity [10] | Activity [11] | MIC50 [14] [µg/mL] | MIC90 [16] [µg/mL] | MIC50 [22] [µg/mL] | other results
C[C@H](O)[C@H]1C(=O)N2C(C(=O)[O-])=C(c3cc(C[n+]4ccccc4N)c4ccccc4c3)C[C@H]12 | 1.4 | 0.02 | 0.01 | 0.13 | 0.01 | 0.1 | 0.02 | 0.04 | 2.2 | 1.9 | 0.01 |  |  |  | 
CC(O)C1C(=O)N2C(C(=O)O)=C(c3ccc4ccccc4c3)CC12 (configuration not stated) | 3.3 | 0.09 | 0.1 | 0.5 | 0.09 | 2.8 | 0.08 | 0.31 | 2.6 | 2.7 | 0.01 |  |  |  | 
C[C@H](O)[C@H]1C(=O)N2C(C(=O)[O-])=C(c3cc(C[n+]4ccc(N)cc4)c4ccccc4c3)C[C@H]12 | 11 | 0.02 | 0.02 | 0.42 | 0.01 | 0.19 | 0.02 | 0.06 | 2.2 | 24 | 0.01 |  |  |  | 
C[C@@H](O)[C@H]1C(=O)N2C(C(=O)O)=C(SCCNC=N)C[C@H]12 [IMIPENEM ANHYDROUS] |  |  |  |  | 1 |  |  |  |  |  |  | 128 (≈ 428 µM) | 64 (≈ 214 µM) | 32 (≈ 107 µM) | MIC [12]: 0.29 µg/mL (≈ 0.969 µM); MIC [13]: 1.8 µg/mL (≈ 6.01 µM); MIC [15]: 0.19 µg/mL (≈ 0.635 µM); MIC [17]: 0.18 µg/mL (≈ 0.601 µM); MIC [18]: 0.01 µg/mL (≈ 0.0334 µM); MIC [19]: 0.29 µg/mL (≈ 0.969 µM); MIC [20]: 0.36 µg/mL (≈ 1.2 µM); MIC [21]: 0.69 µg/mL (≈ 2.3 µM); MIC [23]: 70 µg/mL (≈ 234 µM); MIC [24]: 33 µg/mL (≈ 110 µM)
C[C@@H](O)[C@H]1C(=O)N2C(C(=O)[O-])=C(c3ccc4ccc(C[n+]5ccc(N)cc5)cc4c3)C[C@H]12 | 16 | 0.97 | 0.17 | 0.53 | 0.07 | 3.2 | 0.25 | 0.33 | 4.9 | 55 | 0.01 |  |  |  | 
C[C@@H](O)[C@H]1C(=O)N2C(C(=O)[O-])=C(c3ccc4cccc(C[n+]5ccc(N)cc5)c4c3)C[C@H]12 | 20 | 0.07 | 0.03 | 0.15 | 0.01 | 0.48 | 0.04 | 0.09 | 2.4 | 40 | 0.01 | 16 (≈ 37.3 µM) | 8 (≈ 18.6 µM) | 8 (≈ 18.6 µM) | 
C[C@@H](O)[C@H]1C(=O)N2C(C(=O)[O-])=C(c3ccc4cc(C[n+]5ccc(N)cc5)ccc4c3)C[C@H]12 | 18 | 1.8 | 0.92 | 0.45 | 0.26 | 10 |  | 1.4 | 2.7 | 77 | 0.02 | 8 (≈ 18.6 µM) | 8 (≈ 18.6 µM) | 4 (≈ 9.31 µM) | Activity [25]: 0.4
C[C@@H](O)[C@H]1C(=O)N2C(C(=O)[O-])=C(c3ccc4c(C[n+]5ccc(N)cc5)cccc4c3)C[C@H]12 | 12 | 0.69 | 0.18 | 0.42 | 0.03 | 15 | 0.21 | 0.4 | 2.7 | 77 | 0.02 |  |  |  | 
CN[C@H](CC(C)C)C(=O)N[C@H]1C(=O)N[C@@H](CC(N)=O)C(=O)N[C@H]2C(=O)N[C@H]3C(=O)N[C@H](C(=O)N[C@H](C(=O)O)c4cc(O)cc(O)c4-c4cc3ccc4O)[C@H](O)c3ccc(c(Cl)c3)Oc3cc2cc(c3O[C@@H]2O[C@H](CO)[C@@H](O)[C@H](O)[C@H]2O[C@H]2C[C@](C)(N)[C@H](O)[C@H](C)O2)Oc2ccc(cc2Cl)[C@H]1O [VANCOMYCIN] |  |  |  |  |  |  |  |  |  |  |  | 4 (≈ 2.76 µM) | 2 (≈ 1.38 µM) | 2 (≈ 1.38 µM) | 
C[C@H](O)[C@H]1C(=O)N2C(C(=O)[O-])=C(c3cccc(-c4ccc(C[n+]5ccccc5N)cc4)c3)C[C@H]12 | 154 | 0.11 | 0.04 | 0.43 | 0.04 | 0.38 | 0.04 | 0.11 | 6.2 | 232 | 0.01 | 2 (≈ 4.39 µM) | 2 (≈ 4.39 µM) | 1 (≈ 2.2 µM) | 
C[C@@H](O)[C@H]1C(=O)N2C(C(=O)[O-])=C(c3ccc4cc(C[n+]5cccc(N)c5)ccc4c3)C[C@H]12 | 13 | 3 | 0.64 | 0.53 | 0.15 | 6.5 | 0.43 | 1.3 | 2.3 | 44 | 0.02 |  |  |  | 
C[C@@H](O)[C@H]1C(=O)N2C(C(=O)[O-])=C(c3cc(C[n+]4cccc(N)c4)c4ccccc4c3)C[C@H]12 | 6.9 | 0.03 | 0.02 | 0.39 | 0.01 | 0.13 | 0.01 | 0.09 | 3.2 | 12 | 0.01 |  |  |  | 
C[C@@H](O)[C@H]1C(=O)N2C(C(=O)[O-])=C(c3ccc4cc(C[n+]5ccccc5N)ccc4c3)C[C@H]12 | 28 | 2 | 0.85 | 0.39 | 0.2 | 5 | 0.38 | 1.4 | 4.4 | 323 | 0.02 | 8 (≈ 18.6 µM) | 4 (≈ 9.31 µM) | 2 (≈ 4.66 µM) | 
C[C@@H](O)[C@H]1C(=O)N2C(C(=O)[O-])=C(c3ccc4cccc(C[n+]5ccccc5N)c4c3)C[C@H]12 | 4.9 | 0.05 | 0.01 | 0.1 | 0 | 0.22 | 0.03 | 0.04 | 2.1 | 8 | 0.02 |  |  |  | 
C[C@@H](O)[C@H]1C(=O)N2C(C(=O)[O-])=C(c3ccc(C[n+]4ccccc4N)cc3)C[C@H]12 | 2 | 4.4 | 3 | 0.5 | 0.11 | 4.2 | 1.1 | 1.7 | 12.9 | 1.6 | 0.02 |  |  |  | 
